Experimental data: ChEMBL document CHEMBL1201862, “PubChem BioAssay data set” (2004)
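The compound was tested at five concentrations on cells cultured in 96-well plates, with a 48-hour exposure period. Abbreviation: GI50, concentration required for 50% inhibition of growth.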 The source made the active and inactive calls. Cut-off read from the data, not from the text of the source: active = GI50 up to about 1.1 µM and inactive = higher.

What was measured:
Assay in all cases: DTP human tumour cell line panel, 48 h
HL-60 = test system: HL-60
MOLT-4 = test system: MOLT-4
SK-MEL-2 = test system: SK-MEL-2
COLO 205 = test system: COLO 205
MDA-MB-231 = test system: MDA-MB-231
786-0 = test system: 786-0
MCF7 = test system: MCF7
K562 = test system: K562
TK-10 = test system: TK-10
CAKI-1 = test system: CAKI-1
NCI-H522 = test system: NCI-H522
BT-549 = test system: BT-549
SNB-75 = test system: SNB-75
RXF 393 = test system: RXF 393
OVCAR-8 = test system: OVCAR-8
DU-145 = test system: DU-145
OVCAR-4 = test system: OVCAR-4
NCI-H23 = test system: NCI-H23
EKVX = test system: EKVX
SF-539 = test system: SF-539
SN12C = test system: SN12C
UACC-62 = test system: UACC-62
Hs-578T = test system: Hs-578T
HT-29 = test system: HT-29
PC-3 = test system: PC-3
MDA-MB-435 = test system: MDA-MB-435
NCI-H226 = test system: NCI-H226
MDA-N = test system: MDA-N
T47D = test system: T47D
NCI-H460 = test system: NCI-H460
U-251 = test system: U-251
HCT-116 = test system: HCT-116
M14 = test system: M14
KM12 = test system: KM12
A549 = test system: A549
LOX IMVI = test system: LOX IMVI
HCT-15 = test system: HCT-15
SW-620 = test system: SW-620
CCRF-CEM = test system: CCRF-CEM
UACC-257 = test system: UACC-257
SK-MEL-28 = test system: SK-MEL-28
SF-295 = test system: SF-295
OVCAR-5 = test system: OVCAR-5
SK-MEL-5 = test system: SK-MEL-5
SNB-19 = test system: SNB-19
HOP-62 = test system: HOP-62
SK-OV-3 = test system: SK-OV-3
SF-268 = test system: SF-268
UO-31 = test system: UO-31
A498 = test system: A498
HOP-92 = test system: HOP-92
OVCAR-3 = test system: OVCAR-3
ACHN = test system: ACHN
IGROV-1 = test system: IGROV-1
Malme-3M = test system: Malme-3M
NCI/ADR-RES = test system: NCI/ADR-RES
HCC 2998 = test system: HCC 2998
RPMI-8226 = test system: RPMI-8226

## COP(=O)(OC)C(Nc1ccc(Cc2ccc(NC(c3ccco3)P(=O)(OC)OC)cc2)cc1)c1ccco1 (stereo unspecified)
HL-60
  GI50: > 100 µM (inactive)
MOLT-4
  GI50: > 100 µM (inactive)
SK-MEL-2
  GI50: 14 µM (inactive)
COLO 205
  GI50: > 100 µM (inactive)
MDA-MB-231
  GI50: 15.9 µM (inactive)
786-0
  GI50: 13.8 µM (inactive)
MCF7
  GI50: > 100 µM (inactive)
K562
  GI50: > 100 µM (inactive)
TK-10
  GI50: 8.77 µM (inactive)
CAKI-1
  GI50: 26.3 µM (inactive)
NCI-H522
  GI50: 28.3 µM (inactive)
BT-549
  GI50: 17.3 µM (inactive)
SNB-75
  GI50: 3.33 µM (inactive)
RXF 393
  GI50: 5.83 µM (inactive)
OVCAR-8
  GI50: 65.5 µM (inactive)
DU-145
  GI50: > 100 µM (inactive)
OVCAR-4
  GI50: > 100 µM (inactive)
NCI-H23
  GI50: 14 µM (inactive)
EKVX
  GI50: 20.9 µM (inactive)
SF-539
  GI50: 4.79 µM (inactive)
SN12C
  GI50: 97.1 µM (inactive)
UACC-62
  GI50: 17 µM (inactive)
Hs-578T
  GI50: 11.4 µM (inactive)
HT-29
  GI50: > 100 µM (inactive)
PC-3
  GI50: 52.7 µM (inactive)
MDA-MB-435
  GI50: > 100 µM (inactive)
NCI-H226
  GI50: > 100 µM (inactive)
MDA-N
  GI50: > 100 µM (inactive)
T47D
  GI50: 67.1 µM (inactive)
NCI-H460
  GI50: > 100 µM (inactive)
U-251
  GI50: 5.33 µM (inactive)
HCT-116
  GI50: 35.9 µM (inactive)
M14
  GI50: 38.1 µM (inactive)
KM12
  GI50: > 100 µM (inactive)
A549
  GI50: > 100 µM (inactive)
LOX IMVI
  GI50: 82.2 µM (inactive)
HCT-15
  GI50: > 100 µM
SW-620
  GI50: > 100 µM (inactive)
CCRF-CEM
  GI50: > 100 µM (inactive)
UACC-257
  GI50: > 100 µM (inactive)
SK-MEL-28
  GI50: > 100 µM (inactive)
SF-295
  GI50: 11.5 µM (inactive)
OVCAR-5
  GI50: 46.8 µM (inactive)
SK-MEL-5
  GI50: > 100 µM (inactive)
SNB-19
  GI50: 11.9 µM (inactive)
HOP-62
  GI50: 4.62 µM (inactive)
SK-OV-3
  GI50: 18.8 µM (inactive)
SF-268
  GI50: 15.4 µM (inactive)
UO-31
  GI50: 79.1 µM (inactive)
A498
  GI50: 19 µM (inactive)
HOP-92
  GI50: 6.47 µM (inactive)
OVCAR-3
  GI50: 85.1 µM (inactive)
ACHN
  GI50: 20.9 µM (inactive)
IGROV-1
  GI50: 31.4 µM (inactive)
Malme-3M
  GI50: 47.9 µM (inactive)
NCI/ADR-RES
  GI50: > 100 µM (inactive)

## O=Cc1cccc2ccc3ccccc3c12
SK-MEL-2
  GI50: 15.1 µM (inactive)
COLO 205
  GI50: 18.7 µM (inactive)
MDA-MB-231
  GI50: 17 µM (inactive)
786-0
  GI50: 17.5 µM (inactive)
MCF7
  GI50: 14.4 µM (inactive)
TK-10
  GI50: 14.3 µM (inactive)
CAKI-1
  GI50: 16.1 µM (inactive)
NCI-H522
  GI50: 13.8 µM (inactive)
BT-549
  GI50: 30.5 µM (inactive)
SNB-75
  GI50: 7.35 µM (inactive)
RXF 393
  GI50: 16.3 µM (inactive)
OVCAR-8
  GI50: 24.2 µM (inactive)
DU-145
  GI50: 22.4 µM (inactive)
NCI-H23
  GI50: 25.1 µM (inactive)
SF-539
  GI50: 5.86 µM (inactive)
SN12C
  GI50: 20.5 µM (inactive)
UACC-62
  GI50: 28.1 µM (inactive)
Hs-578T
  GI50: 13.5 µM (inactive)
HT-29
  GI50: 12.2 µM (inactive)
PC-3
  GI50: 9.59 µM (inactive)
MDA-MB-435
  GI50: 18.4 µM (inactive)
NCI-H226
  GI50: 24.7 µM (inactive)
MDA-N
  GI50: 21.6 µM (inactive)
T47D
  GI50: 15 µM (inactive)
NCI-H460
  GI50: 21.4 µM (inactive)
U-251
  GI50: 5.93 µM (inactive)
HCT-116
  GI50: 9.18 µM (inactive)
M14
  GI50: 20 µM (inactive)
KM12
  GI50: 4.02 µM (inactive)
A549
  GI50: 24.3 µM (inactive)
LOX IMVI
  GI50: 11.3 µM (inactive)
HCT-15
  GI50: 11.1 µM
SW-620
  GI50: 10.4 µM (inactive)
UACC-257
  GI50: 32 µM (inactive)
SF-295
  GI50: 17.1 µM (inactive)
SK-MEL-5
  GI50: 16.9 µM (inactive)
SNB-19
  GI50: 7.8 µM (inactive)
HOP-62
  GI50: 15.9 µM (inactive)
SK-OV-3
  GI50: 16.5 µM (inactive)
SF-268
  GI50: 11.5 µM (inactive)
UO-31
  GI50: 24 µM (inactive)
A498
  GI50: 22.4 µM (inactive)
OVCAR-3
  GI50: 12.9 µM (inactive)
HCC 2998
  GI50: 26.2 µM (inactive)
ACHN
  GI50: 13.5 µM (inactive)
Malme-3M
  GI50: 16.4 µM (inactive)
NCI/ADR-RES
  GI50: 8.45 µM (inactive)

## NC1=CN(CCCO)C2=N/C(=C\c3ccco3)C(=O)N12
HL-60
  GI50: > 100 µM (inactive)
MOLT-4
  GI50: > 100 µM (inactive)
SK-MEL-2
  GI50: > 100 µM (inactive)
COLO 205
  GI50: > 100 µM (inactive)
MDA-MB-231
  GI50: > 100 µM (inactive)
786-0
  GI50: > 100 µM (inactive)
MCF7
  GI50: > 100 µM (inactive)
RPMI-8226
  GI50: > 100 µM (inactive)
K562
  GI50: > 100 µM (inactive)
TK-10
  GI50: > 100 µM (inactive)
CAKI-1
  GI50: > 100 µM (inactive)
NCI-H522
  GI50: > 100 µM (inactive)
BT-549
  GI50: > 100 µM (inactive)
SNB-75
  GI50: > 100 µM (inactive)
RXF 393
  GI50: > 100 µM (inactive)
OVCAR-8
  GI50: > 100 µM (inactive)
DU-145
  GI50: > 100 µM (inactive)
OVCAR-4
  GI50: > 100 µM (inactive)
NCI-H23
  GI50: > 100 µM (inactive)
EKVX
  GI50: > 100 µM (inactive)
SF-539
  GI50: > 100 µM (inactive)
SN12C
  GI50: > 100 µM (inactive)
UACC-62
  GI50: > 100 µM (inactive)
Hs-578T
  GI50: > 100 µM (inactive)
HT-29
  GI50: > 100 µM (inactive)
PC-3
  GI50: > 100 µM (inactive)
MDA-MB-435
  GI50: > 100 µM (inactive)
NCI-H226
  GI50: > 100 µM (inactive)
MDA-N
  GI50: > 100 µM (inactive)
T47D
  GI50: > 100 µM (inactive)
NCI-H460
  GI50: > 100 µM (inactive)
U-251
  GI50: > 100 µM (inactive)
HCT-116
  GI50: > 100 µM (inactive)
M14
  GI50: > 100 µM (inactive)
KM12
  GI50: > 100 µM (inactive)
A549
  GI50: > 100 µM (inactive)
LOX IMVI
  GI50: > 100 µM (inactive)
HCT-15
  GI50: > 100 µM
SW-620
  GI50: > 100 µM (inactive)
CCRF-CEM
  GI50: > 100 µM (inactive)
UACC-257
  GI50: 48.9 µM (inactive)
SK-MEL-28
  GI50: > 100 µM (inactive)
SF-295
  GI50: > 100 µM (inactive)
OVCAR-5
  GI50: > 100 µM (inactive)
SK-MEL-5
  GI50: > 100 µM (inactive)
SNB-19
  GI50: > 100 µM (inactive)
HOP-62
  GI50: > 100 µM (inactive)
SK-OV-3
  GI50: > 100 µM (inactive)
SF-268
  GI50: > 100 µM (inactive)
UO-31
  GI50: 94 µM (inactive)
A498
  GI50: > 100 µM (inactive)
HOP-92
  GI50: > 100 µM (inactive)
OVCAR-3
  GI50: > 100 µM (inactive)
HCC 2998
  GI50: > 100 µM (inactive)
ACHN
  GI50: > 100 µM (inactive)
IGROV-1
  GI50: > 100 µM (inactive)
Malme-3M
  GI50: > 100 µM (inactive)
NCI/ADR-RES
  GI50: > 100 µM (inactive)
